What is called IC50 is the concentration needed to halve the response being measured.

Where only a bound is given, the exact number is not on record here.

IC50 data for 42 compounds are collected here from US9790169B2, “IDO inhibitors” (BRISTOL-MYERS SQUIBB COMPANY, priority 2015, dated 2017).

The experiment has as its target human IDO1 (Homo sapiens, UniProt P14902). Briefly: Assessment of human IDO-1 inhibitory activity in HEK cells (human IDO1/HEK293 cells, kynurenine read-out with Ehrlich reagent, absorbance 490 nm). It counts as cell-based. Also noted: expressed in transfected cells. Particulars: HEK Human IDO-1 cellular assay. The gist of the method: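 HEK293 cells stably expressing human IDO1 were seeded at 10,000 per well in phenol red-free RPMI with 10% FBS, treated with compound for 20 h at 37 °C. Kynurenine was measured after TCA (0.2% final) and 30 min at 50 °C, using Ehrlich reagent, A490. IC50 normalised to DMSO (0%) and 500 nM reference standard (100%).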

human IDO1, sequence (P14902 whole entry): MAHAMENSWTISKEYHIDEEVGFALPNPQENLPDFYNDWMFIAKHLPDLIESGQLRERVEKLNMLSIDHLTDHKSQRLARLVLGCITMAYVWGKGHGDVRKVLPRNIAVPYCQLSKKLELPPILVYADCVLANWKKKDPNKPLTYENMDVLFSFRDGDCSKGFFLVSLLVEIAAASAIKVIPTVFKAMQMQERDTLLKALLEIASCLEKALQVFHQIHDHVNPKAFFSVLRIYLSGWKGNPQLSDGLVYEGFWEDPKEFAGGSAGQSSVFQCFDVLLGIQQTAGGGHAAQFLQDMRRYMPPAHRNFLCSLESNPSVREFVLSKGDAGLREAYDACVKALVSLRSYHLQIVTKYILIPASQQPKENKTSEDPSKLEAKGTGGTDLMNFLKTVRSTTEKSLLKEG

As for `CC[C@@H](CC(=O)O)c1ccc(N(CC)C2CCCCC2)c(Nc2ccc(Cl)cc2)c1` (single isomer, unassigned) [Example 279], the IC50 was less than 5 nM.
As to `CCOc1ncc(Nc2cc([C@@H](CC)CC(=O)O)ccc2N(CC)C2CCCCC2)cn1` (single isomer, unassigned) [Example 281], the IC50 is less than 50 nM.
To `CCc1ccc(Nc2cc([C@@H](CC)CC(=O)O)ccc2N(CC)C2CCCCC2)cc1` (single isomer, unassigned) [Example 282] belongs less than 5 nM; to `CC[C@@H](CC(=O)O)c1ccc(N(CC)C2CCCCC2)c(Nc2ccc(C#N)cc2)c1` (single isomer, unassigned) [Example 283], less than 5 nM.
Under `CC[C@@H](CC(=O)O)c1ccc(N(CC)C2CCCCC2)c(Nc2ccc(OC(F)F)cc2)c1` (single isomer, unassigned) [Example 284] stands less than 5 nM.
Turning to `CC[C@H](CC(=O)O)c1ccc(N(CC)C2CCCCC2)c(Nc2ccc(Cl)cc2)c1` (single isomer, unassigned) [Example 285], the half-inhibitory concentration (IC50) was less than 5 nM.
Under `CCc1cnc(Nc2cc([C@H](CC)CC(=O)O)ccc2N(CC)C2CCCCC2)nc1` (single isomer, unassigned) [Example 286] stands greater than 50 nM.
For `CCOc1ncc(Nc2cc([C@H](CC)CC(=O)O)ccc2N(CC)C2CCCCC2)cn1` (single isomer, unassigned) [Example 287], the concentration for half-maximal inhibition (IC50) was less than 5 nM.
As to `CCc1ccc(Nc2cc([C@H](CC)CC(=O)O)ccc2N(CC)C2CCCCC2)cc1` (single isomer, unassigned) [Example 288], the IC50 is less than 50 nM.
As to `CC[C@H](CC(=O)O)c1ccc(N(CC)C2CCCCC2)c(Nc2ccc(C#N)cc2)c1` (single isomer, unassigned) [Example 289], the half-maximal inhibitory concentration (IC50) is less than 5 nM.
On to `CC[C@H](CC(=O)O)c1ccc(N(CC)C2CCCCC2)c(Nc2ccc(OC(F)F)cc2)c1` (single isomer, unassigned) [Example 290], for which the IC50 was less than 5 nM.
Turning to `CCC(CC(=O)O)c1ccc(N(CC(C)C)C2CCCCC2)c(Nc2ccc3c(c2)OC(F)(F)O3)c1` (single isomer, unassigned) [Example 299, 3-(4-(Cyclohexyl(isobutyl)amino)-3-((2,2-difluorobenzo[d][1,3]dioxol-5-yl)amino)phenyl)pentanoic acid], the IC50 was less than 5 nM.
With `CCC(CC(=O)O)c1ccc(N(CC(C)C)C2CCCCC2)c(Nc2ccc3c(c2)OCCO3)c1` (single isomer, unassigned) [Example 301, 3-(4-(cyclohexyl(isobutyl)amino)-3-((2,3-dihydrobenzo[b][1,4]dioxin-6-yl)amino)phenyl) pentanoic acid], the IC50 was less than 50 nM.
As to `CCc1cnc(Nc2cc(C(CC)CC(=O)O)ccc2N(CC(C)C)C2CCCCC2)nc1` (single isomer, unassigned) [Example 302, 3-(4-(cyclohexyl(isobutyl)amino)-3-((5-ethylpyrimidin-2-yl)amino)phenyl)pentanoic acid], the IC50 is less than 5 nM.
In the case of `CCC(CC(=O)O)c1ccc(N(CC(C)C)C2CCCCC2)c(Nc2ccc(C)cc2)c1` (single isomer, unassigned) [Example 304, 3-(4-(cyclohexyl(isobutyl)amino)-3-(p-tolylamino)phenyl)pentanoic acid], the 50% inhibitory concentration (IC50) is less than 5 nM.
Under `CCC(CC(=O)O)c1ccc(N(CC(C)C)C2CCCCC2)c(Nc2ccc3nc(C)sc3c2)c1` (single isomer, unassigned) [Example 305, 3-(4-(cyclohexyl(isobutyl)amino)-3-((2-methylbenzo [d]thiazol-6-yl)amino)phenyl)pentanoic acid] stands less than 5 nM; under `CCC(CC(=O)O)c1ccc(N(CC(C)C)C2CCCCC2)c(Nc2ccc(Cl)cc2F)c1` (single isomer, unassigned) [Example 307, 3-(3-((4-chloro-2-fluorophenyl)amino)-4-(cyclohexyl(isobutyl)amino)phenyl)pentanoic acid], less than 50 nM; under `CCC(CC(=O)O)c1ccc(N(CC(C)C)C2CCCCC2)c(Nc2ccc(Cl)cc2)c1` (single isomer, unassigned) [Example 308, 3-(3-((4-chlorophenyl)amino)-4-(cyclohexyl (isobutyl)amino)phenyl) pentanoic acid], less than 5 nM.
With `CCc1ccc(Nc2cc(C(CC)CC(=O)O)ccc2N(CC(C)C)C2CCCCC2)cc1` (single isomer, unassigned) [Example 309, 3-(4-(cyclohexyl(isobutyl)amino)-3-((4-ethylphenyl)amino)phenyl)pentanoic acid], the 50% inhibitory concentration (IC50) was less than 5 nM.
For `CCC(CC(=O)O)c1ccc(N(CC(C)C)C2CCCCC2)c(Nc2ccc(Cl)c(F)c2)c1` (single isomer, unassigned) [Example 310, 3-(3-((4-chloro-3-fluorophenyl)amino)-4-(cyclohexyl(isobutyl)amino)phenyl)pentanoic acid], the IC50 is less than 5 nM.
Under `CCC(CC(=O)O)c1ccc(N(CC(C)C)C2CCCCC2)c(Nc2ccc(F)cc2)c1` (single isomer, unassigned) [Example 311, 3-(4-(cyclohexyl(isobutyl)amino)-3-((4-fluorophenyl)amino)phenyl)pentanoic acid] stands less than 5 nM; under `CCC(CC(=O)O)c1ccc(N(CC(C)C)C2CCCCC2)c(Nc2ccc(OC(F)(F)F)cc2)c1` (single isomer, unassigned) [Example 312, 3-(4-(cyclohexyl(isobutyl)amino)-3-((4-(trifluoromethoxy)phenyl)amino)phenyl)pentanoic acid], less than 5 nM.
In the case of `CCOc1ccc(Nc2cc(C(CC)CC(=O)O)ccc2N(CC(C)C)C2CCCCC2)cc1` (single isomer, unassigned) [Example 313, 3-(4-(cyclohexyl(isobutyl)amino)-3-((4-ethoxyphenyl)amino)phenyl)pentanoic acid], the IC50 was less than 5 nM.
As for `CCC(CC(=O)O)c1ccc(N(CC(C)C)C2CCCCC2)c(Nc2ccc(C#N)cc2)c1` (single isomer, unassigned) [Example 314, 3-(3-((4-cyanophenyl)amino)-4-(cyclohexyl (isobutyl)amino)phenyl) pentanoic acid], the IC50 was less than 5 nM.
Under `CCC(CC(=O)O)c1ccc(N(CC(C)C)C2CCCCC2)c(Nc2ccc3c(c2)OC(F)(F)O3)c1` (single isomer, unassigned) [Example 315, 3-(4-(Cyclohexyl(isobutyl)amino)-3-((2,2-difluorobenzo[d][1,3]dioxol-5-yl)amino)phenyl)pentanoic acid] stands greater than 50 nM.
Consider `CCC(CC(=O)O)c1ccc(N(CC)C2CCS(=O)(=O)CC2)c(Nc2ccc(C#N)cc2)c1` (single isomer, unassigned) [Example 337, 3-(3-((4-cyanophenyl)amino)-4-((1,1-dioxidotetrahydro-2H-thiopyran-4-yl)(ethyl)amino)phenyl) pentanoic acid], for which the IC50 is less than 5 nM.
Under `CCN(c1ccc([C@@H](COC)CC(=O)O)cc1Nc1cnc(OC)nc1)C1CCOCC1` (single isomer, unassigned) [Example 350] stands less than 50 nM; under `CCOc1ncc(Nc2cc([C@@H](COC)CC(=O)O)ccc2N(CC)C2CCOCC2)cn1` (single isomer, unassigned) [Example 351], less than 50 nM; under `CCN(c1ccc([C@@H](COC)CC(=O)O)cc1Nc1ccc(C)cc1)C1CCOCC1` (single isomer, unassigned) [Example 373], less than 5 nM.
Consider `CCc1ccc(Nc2cc([C@@H](COC)CC(=O)O)ccc2N(CC)C2CCOCC2)cc1` (single isomer, unassigned) [Example 374], for which the half-maximal inhibitory concentration (IC50) is less than 5 nM.
Under `CCN(c1ccc([C@@H](COC)CC(=O)O)cc1Nc1ccc(F)cc1)C1CCOCC1` (single isomer, unassigned) [Example 375] stands less than 5 nM; under `CCN(c1ccc([C@@H](COC)CC(=O)O)cc1Nc1ccc(Cl)cc1)C1CCOCC1` (single isomer, unassigned) [Example 376], less than 5 nM; under `CCN(c1ccc([C@@H](COC)CC(=O)O)cc1Nc1ccc2nc(C)sc2c1)C1CCOCC1` (single isomer, unassigned) [Example 377], less than 50 nM.
In the case of `CCN(c1ccc([C@@H](COC)CC(=O)O)cc1Nc1cnc(C)nc1)C1CCOCC1` (single isomer, unassigned) [Example 379], the IC50 is greater than 50 nM.
To `CCN(c1ccc([C@@H](COC)CC(=O)O)cc1NC(=O)Nc1ccc(OC)cc1F)C1CCOCC1` (single isomer, unassigned) [Example 424] belongs greater than 50 nM; to `CCN(c1ccc([C@@H](COC)CC(=O)O)cc1NC(=O)Nc1ccc(OC(F)F)cc1)C1CCOCC1` (single isomer, unassigned) [Example 425], greater than 50 nM; to `CCN(c1ccc([C@@H](COC)CC(=O)O)cc1NC(=O)Nc1ccc(OC)nc1)C1CCOCC1` (single isomer, unassigned) [Example 426], greater than 50 nM.
In the case of `CCN(c1ccc([C@@H](COC)CC(=O)O)cc1NC(=O)Nc1cnc(C)nc1)C1CCOCC1` (single isomer, unassigned) [Example 427], the IC50 was greater than 50 nM.
For `CCN(c1ccc([C@@H](COC)CC(=O)O)cc1NC(=O)Nc1cc(C)on1)C1CCOCC1` (single isomer, unassigned) [Example 428], the IC50 is greater than 50 nM.
To `CCN(c1ccc([C@@H](COC)CC(=O)O)cc1NC(=O)Nc1cc(C)no1)C1CCOCC1` (single isomer, unassigned) [Example 429] belongs greater than 50 nM.
To `CCOc1ccc(NC(=O)Nc2cc([C@@H](COC)CC(=O)O)ccc2N(CC)C2CCOCC2)cc1` (single isomer, unassigned) [Example 432] belongs greater than 50 nM; to `CCN(c1ccc([C@@H](COC)CC(=O)O)cc1NC(=O)Nc1ccc(C)cc1)C1CCOCC1` (single isomer, unassigned) [Example 433], greater than 50 nM.
